Laboratory results taken from patent US10745735B2 (priority 2013, dated 2020).

Assays:
[1] = system: verotoxin producing E. coli (VTEC) cells; type: cell-based
L. innocua = assay: Capture of HPG-labeled, biotin-azide reacted L. innocua on streptavidin-coated magnetic beads; type: cell-based, Listeria innocua; settings: biotin-azide 100 μM, M280 Dynabeads 1 hour
Source text: (§1) FIG. 6: Capture via unnatural amino acid metabolic labeling of live gram negative (E. coli) and gram positive (L. innocua) bacteria.
(§2) E. coli and L. innocua cells metabolically labeled by HPG were further investigated to determine if they could be captured on a surface via the incorporated amino acid analogue.

[2] = system: Listeria innocua strains HPB 34 and 118; assay: Metabolic labeling of Listeria innocua with HPG, Alexa488-azide, fluorescence microscopy; type: cell-based; settings: HPG 100 μg/ml, HTM minimal medium, 16 h at 30° C.
Method: In addition to gram negative E. coli strains, gram positive Listeria strains were investigated to probe the diversity of bacteria susceptible to this labeling strategy. Two strains of Listeria innocua were cultured in HTM minimal medium containing the methionine biosynthesis inhibition amino acids, in the presence of methionine (100 μg/ml) or HPG (100 μg/ml) for 16 h at 30° C., then reacted with Alexa488-azide as described earlier.

BL21 E. coli [3] = assay: Capture of HPG-labeled, biotin-azide reacted E. coli on streptavidin-coated magnetic beads; type: cell-based; settings: biotin-azide 100 μM, M280 Dynabeads 1 hour
Source text: as §1, §2

K12 E. coli = assay: Immunocapture with anti-E. coli antibody beads and HPG metabolic labeling of K12 E. coli; type: cell-based; settings: 30 minutes in M9 media, anti-E. coli antibody beads, Alexa488-azide
Method: FIG. 11: Metabolic label incorporation, immunocapture and fluorescence identification of live K12 strain E. coli. […] M280 streptavidin-coated magnetic beads treated with PBS (“Untreated”) or PBS containing biotin-tagged Anti-E. coli antibody were then added to the culture for 1 hour before the beads were washed in PBS and reacted with Alexa488-azide to fluorescently label surface proteins. Fluorescence levels are adjusted above background detected for cells grown in the presence of methionine.
Metabolic labeling is compatible with strain-specific immunocapture using magnetic beads coated with antibodies directed to specific bacteria. This method has the potential to concentrate specific strains of bacteria from food or water samples, while simultaneously allowing bacteria to acquire the functionalized biomolecular precursor and incorporate it in target biomolecules. Captured bacteria are then identified as living or dead by a subsequent bioorthogonal reaction and detection by fluorescence microscopy. […] M280 magnetic beads treated with PBS or biotin-tagged anti-E. coli antibody were co-incubated with the E. coli. Bacteria/bead aggregates were washed in PBS, then reacted with Alexa488-azide to fluorescently identify living bacteria captured on the M280 magnetic beads.

BL21 E. coli [4] = assay: Dual metabolic labeling (HPG and KDO-azide) of BL21 E. coli, fluorescence and bead capture; type: cell-based; settings: HPG and KDO-azide together
Method: FIG. 10: Dual metabolic label incorporation, fluorescence labeling and capture of live lab strain E. coli. […] The cells were first reacted with biotin-azide to biotinylate surface proteins, then reacted with Alexa488-alkyne to fluorescently label LPS molecules. Surface biotinylation was either fluorescently detected after incubation with Cy3-streptavidin (top panels), or bacteria were captured after incubation with streptavidin-coated magnetic beads (bottom panels). Fluorescence levels are adjusted above background detected for cells grown in the presence of KDO and methionine.
Beyond identification of living cells, this method has the potential to discriminate between gram positive and gram negative bacteria as functionalized KDO will only be incorporated into LPS of gram negative cells, whereas HPG should not discriminate between the two. This method may also be used to capture living bacteria via incorporation of HPG, and fluorescent identification of gram negative strains via incorporation of KDO-azide. […] Methionine biosynthesis was then inhibited and either methionine or HPG were added to the cultures and incubated for 16 hours. Cells were reacted with biotin-azide to label surface proteins containing HPG, then reacted with Alexa488-alkyne to fluorescently label LPS containing KDO-azide. […]

[5] = system: VTEC strain of serotype O45:H2; assay: Metabolic labeling of VTEC O45:H2 with KDO-alkyne, Alexa488-azide, fluorescence microscopy; type: cell-based, E. coli; settings: overnight culture
Source text: Metabolic labeling of VTEC was also investigated to determine if this labeling strategy could be applied to the detection of live pathogenic bacteria. […] Therefore, targeting LPS of bacteria with a KDO analogue can also be used to identify contamination by living pathogenic strains of E. coli.

## C#CCCC(N)C(=O)O (stereo not drawn) [HPG, homopropargylglycine]
[1]
  contact time after which metabolic label incorporation is detected: 30 min
  fluorescence labeling after reaction with Alexa488-azide: fluorescently labeled
L. innocua
  capture on streptavidin coated beads via incorporated HPG: multiple E. coli and L. innocua cells bound to the streptavidin coated beads
[2]
  fluorescence labeling after reaction with Alexa488-azide: labeled efficiently
BL21 E. coli [3]
  capture on streptavidin coated beads via incorporated HPG: multiple E. coli and L. innocua cells bound to the streptavidin coated beads
K12 E. coli
  identification of captured bacteria as living by fluorescence: identified as being alive
BL21 E. coli [4]
  dual metabolic label incorporation: capable of incorporating both

## C#CCCC(=O)NC[C@@H](O)C1OC(O)(C(=O)O)C[C@@H](O)[C@H]1O (stereo partly drawn) [KDO-alkyne]
[5]
  incorporation into LPS molecules: capable of incorporating KDO-alkyne into LPS molecules

## [N-]=[N+]=NC[C@@H](O)C1OC(O)(C(=O)O)C[C@@H](O)[C@H]1O (stereo partly drawn) [KDO-azide]
BL21 E. coli [4]
  dual metabolic label incorporation: capable of incorporating both
